Test [1] has as its target smooth muscle angiotensin II receptor. The experiment in a line: Assay A: Angiotensin II Binding Activity (displacement of 125I-AII, rat uterine membrane preparation). The note with it: rat uterine membranes, 25 °C, 60 min; read-out: IC50 (50% displacement of total specifically bound 125I-AII). The procedure:
Assay A: Anaiotensin II Binding Activity
Compounds of the invention were tested for ability to bind to the smooth muscle angiotensin II receptor using a rat uterine membrane preparation. Angiotensin II (AII) was purchased from Peninsula Labs. ^125 I-angiotensin II (specific activity of 2200 Ci/mmol) was purchased from Du Pont-New England Nuclear. Other chemicals were obtained from Sigma Chemical Co. This assay was carried out according to the method of Douglas et al [Endocrinology, 106, 120-124 (1980)]. Rat uterine membranes were prepared from fresh tissue. All procedures were carried out at 4° C. Uteri were stripped of fat and homogenized in phosphate-buffered saline at pH 7.4 containing 5 mM EDTA. The homogenate was centrifuged at 1500×g for 20 min., and the supernatant was recentrifuged at 100,000×g for 60 min. The pellet was resuspended in buffer consisting of 2 mM EDTA and 50 mM Tris-HCl (pH 7.5) to a final protein concentration of 4 mg/ml. Assay tubes were charged with 0.25 ml of a solution containing 5 mM MgCl2, 2 mM EDTA, 0.5% bovine serum albumin, 50 mM Tris-HCl, pH 7.5 and ^125 I-AII (approximately 10^5 cpm) in the absence or in the presence of unlabelled ligand. The reaction was initiated by the addition of membrane protein and the mixture was incubated at 25° C. for 60 min. The incubation was terminated with ice-cold 50 mM Tris-HDl (pH 7.5) and the mixture was filtered to separate membrane-bound labelled peptide from the free ligand. The incubation tube and filter were washed with ice-cold buffer. Filters were assayed for radioactivity in a Micromedic gamma counter. Nonspecific binding was defined as binding in the presence of 10 μM of unlabelled AII. Specific binding was calculated as total binding minus nonspecific binding. The receptor binding affinity of an AII antagonist compound was indicated by the concentration (IC50) of the tested AII antagonist which gives 50% displacement of the total specifically bound ^125 I-AII from the high affinity AII receptor. Binding data were analyzed by a nonlinear least-squares curve fitting program.

A further test deals with T1, rabbit aortic rings (Oryctolagus cuniculus, UniProt P34976).
T1 construct: The thoracic aorta was removed, cleaned of adherent fat and connective tissue; from tissue; host or cells: thoracic aorta rings, endothelium removed, male New Zealand white rabbit
T1 sequence (P34976 1-359): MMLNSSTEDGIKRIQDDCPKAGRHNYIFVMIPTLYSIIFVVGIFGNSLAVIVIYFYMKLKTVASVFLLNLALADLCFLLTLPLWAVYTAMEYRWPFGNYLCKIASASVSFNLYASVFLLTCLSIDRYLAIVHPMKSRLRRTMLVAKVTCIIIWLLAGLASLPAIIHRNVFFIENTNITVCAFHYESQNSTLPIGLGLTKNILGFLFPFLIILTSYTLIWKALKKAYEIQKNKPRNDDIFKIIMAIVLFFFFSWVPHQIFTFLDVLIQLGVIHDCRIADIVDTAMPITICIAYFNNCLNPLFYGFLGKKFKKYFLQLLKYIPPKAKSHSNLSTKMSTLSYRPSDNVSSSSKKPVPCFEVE
The experiment in a line: Assay B: In Vitro Vascular Smooth Muscle-Response for AII (antagonist activity in rabbit aortic rings). The format is cell-based, rabbit (male New Zealand white). The note with it: antagonist 10^-5 M for 5 min, AII challenge. On the procedure:
Assay B: In Vitro Vascular Smooth Muscle-Response for AII The compounds of the invention were tested for antagonist activity in rabbit aortic rings. Male New Zealand white rabbits (2-2.5 kg) were sacrificed using an overdose of pentobarbital and exsanguinated via the carotid arteries. The thoracic aorta was removed, cleaned of adherent fat and connective tissue and then cut into 3-mm ring segments. The endothelium was removed from the rings by gently sliding a rolled-up piece of filter paper into the vessel lumen. The rings were then mounted in a water-jacketed tissue bath, maintained at 37° C., between moveable and fixed ends of a stainless steel wire with the moveable end attached to an FT03 Grass transducer coupled to a Model 7D Grass Polygraph for recording isometric force responses. The bath was filled with 20 ml of oxygenated (95% oxygen/5% carbon dioxide) Krebs solution of the following composition (mM): 130 NaCl, 15 NaHCO3, 15 KCl, 1.2 NaH2 PO4, 1.2 MgSO4, 2.5 CaCl2, and 11.4 glucose. The preparations were equilibrated for one hour before approximately one gram of passive tension was placed on the rings. Angiotensin II concentration-response curves were then recorded (3×10^-10 to 1×10^-5 M). Each concentration of AII was allowed to elicit its maximal contraction, and then AII was washed out repeatedly for 30 minutes before rechallenging with a higher concentration of AII. Aorta rings were exposed to the test antagonist at 10^-5 M for 5 minutes before challenging with AII. Adjacent segments of the same aorta ring were used for all concentration-response curves in the presence or absence of the test antagonist. The effectiveness of the test compound was expressed in terms of pA2 values and were calculated according to H.O. Schild [Br. J. Pharmacol. Chemother., 2, 189-206 (1947)]. The pA2 value is the concentration of the antagonist which increases the EC50 value for AII by a factor of two. Each test antagonist was evaluated in aorta rings from two rabbits.

The subject of the next test is pressor response to AII. The experiment in a line: Assay C: In Vivo Intragastric Pressor Assay Response for AII Antagonists. Further details: species or system rat (male Sprague-Dawley). The note with it: 3 mg/kg i.g., rat, AII 30 ng/kg bolus; for inhibition in vivo at 3 mg/kg: po. The procedure:
Assay C: In Vivo Intragastric Pressor Assay Response for AII Antagonists of the Invention
Male Sprague-Dawley rats weighing 225-300 grams were anesthetized with methohexital (30 mg/kg, i.p.) and catheters were implanted into the femoral artery and vein. The catheters were tunneled subcutaneously to exit dorsally, posterior to the head and between the scapulae. The catheters were filled with heparin (1000 units/ml of saline). The rats were returned to their cage and allowed regular rat chow and water ad libitum. After full recovery from surgery (3-4 days), rats were placed in Lucite holders and the arterial line was connected to a pressure transducer. Arterial pressure was recorded on a Gould polygraph (mmHg). Angiotensin II was administered as a 30 ng/kg bolus via the venous catheter delivered in a 50 μl volume with a 0.2 ml saline flush. The pressor response in mmHg was measured by the difference from pre-injectionarterial pressure to the maximum pressure achieved. The AII injection was repeated every 10 minutes until three consecutive injections yielded responses within 4 mmHg of each other. These three responses were then averaged and represented the control response to AII. The test compound was suspended in 0.5% methylcellulose in water and was administered by gavage. The volume administered was 2 ml/kg body weight. The standard dose was 3 mg/kg. Angiotensin II bolus injections were given at 30, 45, 60, 75, 120, 150, and 180 minutes after gavage. The pressor response to AII was measured at each time point. The rats were then returned to their cage for future testing. A minimum of 3 days was allowed between tests. Percent inhibition was calculated for each time point following gavage by the following formula: [(Control Response-Response at time point)/Control Response]×100.

For the next test, the system named is angiotensin II receptor. The note with it: cited from earlier work; for angiotensin II antagonist activity: binding experiments, functional assays and in vitro / in vivo tests.
Setting [2] is: first of two rabbits, read-out: pA2 (first value) (converted).
The mark [3] stands for this setting: second of two rabbits, read-out: pA2 (converted).

SMILES strings stand for the structures. Where two headings read alike, the source gives them in different places.

As to `CCCCc1nc(C(=O)N(C)C(C)(C)C)n(Cc2ccc(-c3ccccc3-c3nnn[nH]3)nc2)n1` [Example 18, 5-[2-[5-[[3-butyl-5-(N-methyl-N-tertbutylamido)-1H-1,2,4-triazol-1-yl)methyl]-2-pyridinyl]phenyl]-1H-tetrazole], the IC50 (in general, the point on the concentration scale where inhibition reaches its midpoint) in test [1] is 0.0041 µM. The values for the Kb on rabbit aortic rings (setting [2]) and at rabbit aortic rings (setting [3]) were 0.00372 µM and 0.0166 µM, respectively. Also, the “Duration (of inhibition of AII pressor response)” value in the test with pressor response to AII is more than 180 min. In addition, at 3 mg/kg the inhibition in vivo in the test on pressor response to AII was 30%.

Consider `CCCCc1nc(Cl)c(CC(=O)O)n1Cc1ccccc1[N+](=O)[O-]` [2-butyl-4-chloro-1-(2-nitrobenzyl)imidazole-5-acetic acid], for which the “angiotensin II antagonist activity” value with angiotensin II receptor is reported as “specific competitive angiotensin II antagonist activity”.

In the case of `CNCC(=O)N[C@@H](CCCN=C(N)N)C(=O)N[C@H](C(=O)N[C@@H](Cc1ccc(O)cc1)C(=O)N[C@H](C(=O)N[C@@H](Cc1cnc[nH]1)C(=O)N1CCC[C@H]1C(=O)N[C@@H](C)C(=O)O)C(C)C)C(C)C` [Saralasin], the residual agonist activity entry with angiotensin II receptor was “significant residual agonist activity”.

Turning to `CCCCc1nc(C(=O)N(C)C(C)(C)C)nn1Cc1ccc(-c2ccccc2-c2nnn[nH]2)nc1` [Example 17, 5-[2-[5-[[3-(N-methyl-N-tertbutylamido)-5-butyl-1H-1,2,4-triazol-1-yl)methyl]-2-pyridinyl]phenyl]-1H-tetrazole], the IC50 in test [1] is 0.012 µM. Further, the Kb at rabbit aortic rings (setting [2]) was 0.0245 µM. The Kb at rabbit aortic rings (setting [3]) was 0.0347 µM. Further, in the test on pressor response to AII, the “Duration (of inhibition of AII pressor response)” value was more than 180 min and at 3 mg/kg the inhibition in vivo was 20%.

As for `CCCCc1nc(CC(C)(C)C)n(Cc2ccc(-c3ccccc3-c3nnn[nH]3)nc2)n1` [Example 12, 5-[2-[5-[(3-butyl-5-neopentyl-1H-1,2,4-triazol-1-yl)methyl]-2-pyridinyl]phenyl]-1H-tetrazole], the IC50 in test [1] stood at 0.043 µM. Moreover, the inhibition in vivo (usually the share of the control response that was lost under treatment) at 3 mg/kg with pressor response to AII was determined as 0%.

Regarding `CCCCc1nc(CC(C)(C)C)nn1Cc1ccc(-c2ccccc2-c2nnn[nH]2)nc1` [Example 11, 5-[2-[5-[[3-neopentyl-5-butyl-1H-1,2,4-triazol-1-yl)methyl]-2-pyridinyl]phenyl]-1H-tetrazole], the IC50 in test [1] was 0.0044 µM. Also, in the test with pressor response to AII, the “Duration (of inhibition of AII pressor response)” value is more than 180 min and the inhibition in vivo at 3 mg/kg amounted to 20%.

For the compound `CCCCc1nc(C(F)(F)CCC)n(Cc2ccc(-c3ccccc3-c3nnn[nH]3)nc2)n1` [Example 10, 5-[2-[5-[[3-butyl-5-(1,1-difluorobutyl)-1H-1,2,4-triazol-1-yl)methyl]-2-pyridinyl]phenyl]-1H-tetrazole], the IC50 in test [1] came out at 0.02 µM. Also, the values for the Kb on rabbit aortic rings (setting [2]) and at rabbit aortic rings (setting [3]) were 0.0209 µM and 0.0316 µM, respectively. In the test with pressor response to AII, 3 mg/kg produced 10% inhibition in vivo.

In the case of `CCCCc1nc(-c2ccccc2Cl)nn1Cc1ccc(-c2ccccc2-c2nnn[nH]2)nc1` [Example 29, 5-[2-[5-[[3-(2-chlorophenyl)-5-butyl-1H-1,2,4-triazol-1-yl)methyl]-2-pyridinyl]phenyl]-1H-tetrazole], in test [1], the IC50 came out at 0.025 µM. Besides, in the test with pressor response to AII, the “Duration (of inhibition of AII pressor response)” value was more than 180 min and the inhibition in vivo at 3 mg/kg was found to be 25%.

With `CCCCc1nc(-c2ccccc2Cl)n(Cc2ccc(-c3ccccc3-c3nnn[nH]3)nc2)n1` [Example 30, 5-[2-[5-[[3-butyl-5-(2-chlorophenyl)-1H-1,2,4-triazol-1-yl)methyl]-2-pyridinyl]phenyl]-1H-tetrazole], the IC50 in test [1] was found to be 0.52 µM. This compound came in with an inhibition in vivo at 3 mg/kg with pressor response to AII of 0%.

Take `CCCCc1nc(C(F)(F)CCC)nn1Cc1ccc(-c2ccccc2-c2nnn[nH]2)nc1` [Example 9, 5-[2-[5-[[3-(1,1-difluorobutyl)-5-butyl-1H-1,2,4-triazol-1-yl)methyl]-2-pyridinyl]phenyl]-1H-tetrazole]: the IC50 in test [1] is 0.0094 µM. Also, at rabbit aortic rings (setting [2]), the Kb is 0.0055 µM. In addition, the Kb at rabbit aortic rings (setting [3]) was 0.00389 µM. Moreover, in the test on pressor response to AII, the “Duration (of inhibition of AII pressor response)” value came to 180 min and at 3 mg/kg the inhibition in vivo was 20%.

On to `CCCCc1nc(Cl)c(CC(=O)O)n1Cc1ccccc1Cl` [2-n-butyl-4-chloro-1-(2-chlorobenzyl)imidazole-5-acetic acid], for which, in the test on angiotensin II receptor, the “angiotensin II antagonist activity” value was “specific competitive angiotensin II antagonist activity”.

Values taken from US5602153A, “Method of using 1-arylheteroarylalkyl substituted-1H-1,2,4-triazole compounds for treatment of a giaucoma disorder” (G.D. Searle & Co., priority 1993, dated 1997).
